Among the data in PubChem BioAssay (NCI) are GI50 and TGI values, retold here.

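A five-concentration, 48-hour dose response in 96-well plates underlies each endpoint, interpolated linearly between surrounding concentrations. GI50: concentration for 50% inhibition of growth. The concentration for full growth arrest is given as TGI.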

For the first assay, the system named is HOP-92 NSCLC. Nature of the assay: inhibition of tumour cell growth, NCI panel, 48 h.
Turning to `CC[CH2][Pb]([CH2]CC)([CH2]CC)[O]C(=O)C(F)(F)F`, the GI50 was 0.0291 µM and the TGI came to 0.223 µM.
Taken in the same sequence, the figures for `CN1CCN(Cc2ccc(NC(=O)c3cncc(C#Cc4cnc(N)c5ccc(C#N)cc45)c3)cc2C(F)(F)F)CC1` were 0.0244 µM and 0.344 µM.
Taken in the same sequence, the figures for `COc1ccc2c(c1)c(-c1nc(-c3cn(C)c4ncccc34)cs1)cn2CCCN1CCCCC1` were 1.67 µM and 3.24 µM.
Taken in the same sequence, the figures for `O=C1c2cccc(NCCN=Cc3cc(O)ccc3O)c2C(=O)c2c(NCCN=Cc3cc(O)ccc3O)cccc21` were 1.29 µM and 4.87 µM.
With `CSc1cc(N=Nc2nc3ccccc3s2)c2ccccc2c1O`, the GI50 is 10.1 µM and the TGI is above 50 µM.
Turning to `O=C1NNC=Nc2ccc(cc2)S(=O)(=O)c2ccc(cc2)N=CNNC1=O`, the TGI was above 100 µM.
With `CC1OC(O[C@H]2C[C@@H](O)[C@]3(CO)[C@H]4[C@H](O)C[C@]5(C)[C@@H](C6=CC(=O)OC6)CC[C@]5(O)[C@@H]4CC[C@]3(O)C2)C(O)C(O)C1O` (some centres not stated), the GI50 was 24.4 µM and the TGI stood at 57.6 µM.
As to `COc1cc2c3c(n(C)c(=O)c2cc1OC)-c1cc2c(cc1/C3=C\CCCN1C(=O)c3ccccc3C1=O)OCO2`, the GI50 is 2.12 µM and the TGI was 13.4 µM.
On to `Cn1cc(-c2cnc3ccc(NC(=O)Nc4ccc(F)c(Br)c4)cc3n2)cn1`, for which the GI50 was 1.6 µM and the TGI is 4.41 µM.
For `COc1cc(/C=C/c2cc(/C=C/c3ccc(O)c(OC)c3)n(-c3ccccc3)n2)ccc1O` the same measures were 0.452 µM and 4.25 µM.
Taken in the same sequence, the figures for `Cc1ccc(-c2c3c([nH]c(=O)c2C#N)-c2cc(F)ccc2OC3)cc1` were above 100 µM and above 100 µM.

Another assay concerns SNB-75 CNS. Nature of the assay: inhibition of tumour cell growth, NCI panel, 48 h.
Take `CCc1c(Oc2ccc(C(C)=O)cc2)c2ccccc2[nH]c1=O`: the GI50 is above 26.9 µM and the TGI is above 100 µM.
The molecule `Cc1nc2cccc([N+](=O)[O-])c2c(NCCCN(C)C)c1C` showed a TGI above 100 µM.
Regarding `CC[CH2][Pb]([CH2]CC)([CH2]CC)[O]C(=O)C(F)(F)F`, the GI50 was 0.0679 µM and the TGI was 0.377 µM.
For `CN1CCN(Cc2ccc(NC(=O)c3cncc(C#Cc4cnc(N)c5ccc(C#N)cc45)c3)cc2C(F)(F)F)CC1`, the GI50 is 0.123 µM and the TGI is 0.876 µM.
With `COc1cc(OC)cc(-c2ccc(-c3ccc(C(=N)N)o3)o2)c1`, the GI50 was 2.2 µM and the TGI was determined as 13.8 µM.
As for `O=C(O)Cn1ccc(=O)c2ccc([N+](=O)[O-])cc21`, the TGI was above 100 µM.
Take `O=C(c1ccco1)c1nc2ccc(C(F)(F)F)cc2[n+]([O-])c1C(F)(F)F`: the GI50 is 10.6 µM and the TGI is 37.8 µM.
On to `C=C(CN1CCc2ccccc2C1)c1ccc(C(=O)Nc2cnccn2)cc1`, for which the GI50 is 16.7 µM and the TGI was 61.2 µM.
Taken in the same sequence, the figures for `O=C(CI)NC1Oc2ccccc2-c2oc(=O)c(-c3ccccc3)cc21` (configuration not stated) were 1.54 µM and 2.94 µM.
Consider `COc1ccc2c(c1)c(-c1nc(-c3cn(C)c4ncccc34)cs1)cn2CCCN1CCCCC1`, for which the GI50 was 1.34 µM and the TGI amounted to 2.72 µM.
For `CSc1cc(N=Nc2nc3ccccc3s2)c2ccccc2c1O` the same measures were 0.0869 µM and 11.9 µM.
As to `COc1cc2c3c(n(C)c(=O)c2cc1OC)-c1cc2c(cc1/C3=C\CCCN1C(=O)c3ccccc3C1=O)OCO2`, the GI50 was 27.8 µM and the TGI is above 40 µM.
Turning to `Cn1cc(-c2cnc3ccc(NC(=O)Nc4ccc(F)c(Br)c4)cc3n2)cn1`, the GI50 was 1.97 µM and the TGI was found to be 4.8 µM.
Taken in the same sequence, the figures for `Cc1ccc(-c2c3c([nH]c(=O)c2C#N)-c2cc(F)ccc2OC3)cc1` were above 100 µM and above 100 µM.

Another assay deals with KM12 colon. Nature of the assay: inhibition of tumour cell growth, NCI panel, 48 h.
For the molecule `CCc1c(Oc2ccc(C(C)=O)cc2)c2ccccc2[nH]c1=O`, the GI50 is 18.6 µM and the TGI was above 60.9 µM.
Regarding `Cc1nc2cccc([N+](=O)[O-])c2c(NCCCN(C)C)c1C`, the TGI is above 62.4 µM.
`CC[CH2][Pb]([CH2]CC)([CH2]CC)[O]C(=O)C(F)(F)F`: the GI50 is 0.125 µM and the TGI came to 0.33 µM.
As to `CN1CCN(Cc2ccc(NC(=O)c3cncc(C#Cc4cnc(N)c5ccc(C#N)cc45)c3)cc2C(F)(F)F)CC1`, the GI50 is 0.005 µM and the TGI turned out to be 0.603 µM.
As to `COc1cc(OC)cc(-c2ccc(-c3ccc(C(=N)N)o3)o2)c1`, the GI50 was 2.45 µM and the TGI was determined as 6.56 µM.
Turning to `O=C(O)Cn1ccc(=O)c2ccc([N+](=O)[O-])cc21`, the TGI is above 100 µM.
In the case of `O=C(c1ccco1)c1nc2ccc(C(F)(F)F)cc2[n+]([O-])c1C(F)(F)F`, the GI50 was 67.7 µM and the TGI was above 100 µM.
`C=C(CN1CCc2ccccc2C1)c1ccc(C(=O)Nc2cnccn2)cc1`: the GI50 was 12.5 µM and the TGI stood at 56.5 µM.
Regarding `O=C(CI)NC1Oc2ccccc2-c2oc(=O)c(-c3ccccc3)cc21` (configuration not stated), the GI50 was 1.77 µM and the TGI was 3.46 µM.
As to `COc1ccc2c(c1)c(-c1nc(-c3cn(C)c4ncccc34)cs1)cn2CCCN1CCCCC1`, the GI50 was 1.78 µM and the TGI amounted to 3.45 µM.
Regarding `CSc1cc(N=Nc2nc3ccccc3s2)c2ccccc2c1O`, the GI50 is 5.35 µM and the TGI worked out at 28.7 µM.
For `O=C1NNC=Nc2ccc(cc2)S(=O)(=O)c2ccc(cc2)N=CNNC1=O`, the TGI was above 100 µM.
Turning to `CC1OC(O[C@H]2C[C@@H](O)[C@]3(CO)[C@H]4[C@H](O)C[C@]5(C)[C@@H](C6=CC(=O)OC6)CC[C@]5(O)[C@@H]4CC[C@]3(O)C2)C(O)C(O)C1O` (some centres not stated), the GI50 is 17.8 µM and the TGI was found to be 32.3 µM.
Taken in the same sequence, the figures for `COc1cc2c3c(n(C)c(=O)c2cc1OC)-c1cc2c(cc1/C3=C\CCCN1C(=O)c3ccccc3C1=O)OCO2` were 5.1 µM and above 40 µM.
Consider `Cn1cc(-c2cnc3ccc(NC(=O)Nc4ccc(F)c(Br)c4)cc3n2)cn1`, for which the GI50 is 1.71 µM and the TGI is 3.65 µM.
For `COc1cc(/C=C/c2cc(/C=C/c3ccc(O)c(OC)c3)n(-c3ccccc3)n2)ccc1O` the same measures were 0.315 µM and 1.29 µM.
In the case of `Cc1ccc(-c2c3c([nH]c(=O)c2C#N)-c2cc(F)ccc2OC3)cc1`, the GI50 was 36.1 µM and the TGI was above 100 µM.

In a further assay the test system is SK-OV-3 ovarian. Nature of the assay: inhibition of tumour cell growth, NCI panel, 48 h.
For `CCc1c(Oc2ccc(C(C)=O)cc2)c2ccccc2[nH]c1=O`, the GI50 is 21 µM and the TGI worked out at 74.5 µM.
The molecule `Cc1nc2cccc([N+](=O)[O-])c2c(NCCCN(C)C)c1C` yielded a TGI above 100 µM.
As to `CC[CH2][Pb]([CH2]CC)([CH2]CC)[O]C(=O)C(F)(F)F`, the GI50 was 0.275 µM and the TGI amounted to 1.09 µM.
For `CN1CCN(Cc2ccc(NC(=O)c3cncc(C#Cc4cnc(N)c5ccc(C#N)cc45)c3)cc2C(F)(F)F)CC1` the same measures were 0.0212 µM and 0.599 µM.
Regarding `COc1cc(OC)cc(-c2ccc(-c3ccc(C(=N)N)o3)o2)c1`, the GI50 is 14.9 µM and the TGI was found to be 28.5 µM.
Molecule `O=C(O)Cn1ccc(=O)c2ccc([N+](=O)[O-])cc21` gave a TGI above 100 µM.
For the molecule `O=C(c1ccco1)c1nc2ccc(C(F)(F)F)cc2[n+]([O-])c1C(F)(F)F`, the GI50 was 33.4 µM and the TGI was above 100 µM.
On to `C=C(CN1CCc2ccccc2C1)c1ccc(C(=O)Nc2cnccn2)cc1`, for which the GI50 is 24.3 µM and the TGI was found to be 84.5 µM.
For `O=C(CI)NC1Oc2ccccc2-c2oc(=O)c(-c3ccccc3)cc21` (configuration not stated) the same measures were 1.83 µM and 3.48 µM.
As for `COc1ccc2c(c1)c(-c1nc(-c3cn(C)c4ncccc34)cs1)cn2CCCN1CCCCC1`, the GI50 was 1.83 µM and the TGI amounted to 3.53 µM.
Take `O=C1c2cccc(NCCN=Cc3cc(O)ccc3O)c2C(=O)c2c(NCCN=Cc3cc(O)ccc3O)cccc21`: the GI50 was 2.34 µM and the TGI stood at 7.63 µM.
As for `CSc1cc(N=Nc2nc3ccccc3s2)c2ccccc2c1O`, the GI50 is 10.7 µM and the TGI was determined as 28.7 µM.
On to `O=C1NNC=Nc2ccc(cc2)S(=O)(=O)c2ccc(cc2)N=CNNC1=O`, for which the TGI is above 100 µM.
Consider `CC1OC(O[C@H]2C[C@@H](O)[C@]3(CO)[C@H]4[C@H](O)C[C@]5(C)[C@@H](C6=CC(=O)OC6)CC[C@]5(O)[C@@H]4CC[C@]3(O)C2)C(O)C(O)C1O` (some centres not stated), for which the GI50 is 18.8 µM and the TGI was found to be 33.8 µM.
For `COc1cc2c3c(n(C)c(=O)c2cc1OC)-c1cc2c(cc1/C3=C\CCCN1C(=O)c3ccccc3C1=O)OCO2` the same measures were above 40 µM and above 40 µM.
For `Cn1cc(-c2cnc3ccc(NC(=O)Nc4ccc(F)c(Br)c4)cc3n2)cn1` the same measures were 2.24 µM and 5.99 µM.
For `COc1cc(/C=C/c2cc(/C=C/c3ccc(O)c(OC)c3)n(-c3ccccc3)n2)ccc1O` the same measures were 0.334 µM and 1.27 µM.
As to `Cc1ccc(-c2c3c([nH]c(=O)c2C#N)-c2cc(F)ccc2OC3)cc1`, the GI50 was 97.6 µM and the TGI was above 100 µM.

A further assay concerns SK-MEL-5 melanoma. Nature of the assay: inhibition of tumour cell growth, NCI panel, 48 h.
With `CCc1c(Oc2ccc(C(C)=O)cc2)c2ccccc2[nH]c1=O`, the GI50 was 13 µM and the TGI worked out at 27.5 µM.
Molecule `Cc1nc2cccc([N+](=O)[O-])c2c(NCCCN(C)C)c1C` came in with a TGI above 100 µM.
For `CC[CH2][Pb]([CH2]CC)([CH2]CC)[O]C(=O)C(F)(F)F`, the GI50 was 0.127 µM and the TGI stood at 0.264 µM.
For `CN1CCN(Cc2ccc(NC(=O)c3cncc(C#Cc4cnc(N)c5ccc(C#N)cc45)c3)cc2C(F)(F)F)CC1` the same measures were 0.176 µM and 0.696 µM.
For `COc1cc(OC)cc(-c2ccc(-c3ccc(C(=N)N)o3)o2)c1` the same measures were 1.95 µM and 3.39 µM.
Consider `O=C(O)Cn1ccc(=O)c2ccc([N+](=O)[O-])cc21`, for which the TGI was above 100 µM.
As to `O=C(c1ccco1)c1nc2ccc(C(F)(F)F)cc2[n+]([O-])c1C(F)(F)F`, the GI50 is 31.6 µM and the TGI was above 100 µM.
Taken in the same sequence, the figures for `C=C(CN1CCc2ccccc2C1)c1ccc(C(=O)Nc2cnccn2)cc1` were 20.8 µM and 61 µM.
As for `O=C(CI)NC1Oc2ccccc2-c2oc(=O)c(-c3ccccc3)cc21` (configuration not stated), the GI50 was 3.26 µM and the TGI was 11.4 µM.
With `COc1ccc2c(c1)c(-c1nc(-c3cn(C)c4ncccc34)cs1)cn2CCCN1CCCCC1`, the GI50 was 1.79 µM and the TGI was 3.25 µM.
Taken in the same sequence, the figures for `CSc1cc(N=Nc2nc3ccccc3s2)c2ccccc2c1O` were 6.43 µM and 13.3 µM.
With `O=C1NNC=Nc2ccc(cc2)S(=O)(=O)c2ccc(cc2)N=CNNC1=O`, the TGI was above 100 µM.
`CC1OC(O[C@H]2C[C@@H](O)[C@]3(CO)[C@H]4[C@H](O)C[C@]5(C)[C@@H](C6=CC(=O)OC6)CC[C@]5(O)[C@@H]4CC[C@]3(O)C2)C(O)C(O)C1O` (some centres not stated): the GI50 is 17.7 µM and the TGI amounted to 35.2 µM.
Regarding `COc1cc2c3c(n(C)c(=O)c2cc1OC)-c1cc2c(cc1/C3=C\CCCN1C(=O)c3ccccc3C1=O)OCO2`, the GI50 was 21.7 µM and the TGI was above 40 µM.
For `Cn1cc(-c2cnc3ccc(NC(=O)Nc4ccc(F)c(Br)c4)cc3n2)cn1` the same measures were 1.63 µM and 3.03 µM.
Taken in the same sequence, the figures for `COc1cc(/C=C/c2cc(/C=C/c3ccc(O)c(OC)c3)n(-c3ccccc3)n2)ccc1O` were 0.252 µM and 1.36 µM.
For `Cc1ccc(-c2c3c([nH]c(=O)c2C#N)-c2cc(F)ccc2OC3)cc1`, the GI50 is 41.8 µM and the TGI was above 100 µM.
